Measured values as given in patent publication US20220170028A1, “NOVEL INTERLEUKIN-2 VARIANTS AND BIFUNCTIONAL FUSION MOLECULES THEREOF” (Cugene Inc, priority 2019, published 2022).

System: STAT5 phosphorylation in CD4+ Tconv cells
Test: STAT5 phosphorylation in CD4+ Tconv cells, human PBMC assay by FACS
Assay type: cell-based
Description: Single amino acid substitutions were introduced to IL-2 at positions corresponding to amino acids interacting with receptor subunit(s) β or γ or βγ. These substitutions were aimed to reduce IL-2 signaling capacity through the intermediate affinity IL-2Rβγ complex and confer signaling specificity from the high affinity IL-2Rαβγ. IL-2 variants containing single amino acid substitutions were examined for their ability to differentially stimulate STAT5 phosphorylation in CD4 positive Treg and Tconv cells. STAT5 is known to be involved in the downstream signaling cascade upon IL-2 binding to the transmembrane IL-2 receptors. The phosphorylation of STAT5 in defined lymphocyte subpopulations was measured using fresh human peripheral blood mononuclear cells (PBMC) and the forkhead transcription factor FOXP3 was used to identify the Treg population in FACS analysis.
Briefly, human PBMC were isolated by Ficoll-Hypaque centrifugation from the buffy coat of a healthy donor. PBMC were starved in serum-free MACS buffer at 4° C. for 1 hour. 2×10^5 PBMC were then treated with serial dilutions of test compounds for 30 min at 37° C. Cells were fixed and permeabilized with Foxp3/Transcription Factor Staining Buffer Set (EBIO) by incubating with 1× Foxp3 fixation/permeabilization working solution for 30 minutes and washing with 1× permeabilization buffer. Cells were additionally fixed with Cytofix buffer and permeabilized with Perm Buffer III (BD Biosciences) and then washed. After blocking Fc receptors by adding human TruStain FcX (1:50 dilution), cells were stained with a mixture of anti-CD25-PE, anti-FOXP3-APC, anti-pSTAT5-FITC, and anti-CD4-PerCP-Cy5.5 antibodies at concentrations recommended by the manufacturer for 45 minutes at room temperature. Cells were collected by centrifugation, washed, resuspended in FACS buffer, and analyzed by flow cytometry. The flow cytometry data was gated into CD4+/Foxp3+/CD25^high and CD4+/Foxp3−/CD25^low groups for the Treg and CD4 conventional T cell subsets, respectively. Data are expressed as a percent of pStat5 positive cells in gated population.

## P-0511: IL-2 L19H/S125I/Q126E Fc fusion, SEQ ID NO: 213
  STAT5 phosphorylation activity in CD4+ Tconv cells (in words): nearly completely abolished
